Reference: patent US8058281B2, “Use of adenine-derived compounds for the treatment of lupus” (Centre National de la Recherche Scientifique (CNRS), priority 2006, dated 2011)
Where “and” joins values, the source holds several entries; their conditions need not be identical. Equal values may be shown once. Read-outs that look alike come from different tables or passages of the source.

Key:
[1] = test system: MRL/lpr mice; assay: Anti-double-stranded DNA antibodies in serum of MRL/lpr mice (ELISA); assay type: in vivo, mouse; settings: for age at which first anti-DNA Ab positive mice appeared: treatment stopped at 13 weeks; for percentage of mice positive for anti-DNA Abs in serum: positive = OD > 1
Method: FIG. 4: Effect of compound NCS 613 and denbufylline on anti-double-stranded DNA Abs. The presence of Abs directed against DNA in murine serums was measured at different ages (in weeks) by ELISA. Results are shown as a percentage of positive mice. A mouse is defined as positive when the optical density (OD) measured by ELISA is greater than 1.
(§1) Pre-autoimmune female MRL/lpr mice aged 5 weeks received by intravenous route, either buffered saline (PBS; control group, 100 μl per mouse), or compound NCS 613, (30 μg/100 μl per mouse, diluted in saline solution containing 10% ethanol), or denbufylline (100 μg/100 μl per mouse, diluted in saline solution containing 10% ethanol). The […] groups were composed of 10 mice each. The administrations (4 in number) were carried out at the ages of 5, 7, 9 and 13 weeks, and mice were monitored regularly (observations, proteinuria test by Albutix strip, blood tests).
The presence of Abs directed against DNA in murine serums was measured at different ages by ELISA (Monneaux et al., Eur. J. Immunol. (2003) 33, 287-296; Monneaux et al, Arthritis Rheum (2004) 50, 3232-3238.). Calf thymus double-stranded DNA (Sigma) was adsorbed (100 ng/ml) on 96 well polyvinyl chloride plates (Falcon) and incubated overnight at 37° C. After three washes and a saturation step in PBS-Tween buffer containing bovine serum albumin, serums (diluted to 1/500) were incubated for one hour at 37° C. […] The absorbance was measured at 450 nm by spectrophotometry after the reaction had been stopped.

[2] = molecular target: PDE4; assay: PDE4 inhibition, radioenzyme assay, enzyme isolated from vascular tissue; assay type: biochemical, bovine; settings: PDEs isolated from vascular tissue; 1 μM substrate
Method: (§2) Cyclic nucleotides phosphodiesterase activity was measured by a radioenzyme method using tritiated cyclic AMP or GMP (1 μM) as substrate (Lugnier C. et al., Biochem. Pharmacol. (1986) 35, 1743-1751; Keravis T et al., Meth. Mol. Biol. (2005) 307, 63-74.). Tritiated adenosine or guanosine monophosphate formed by hydrolysis of the labelled cyclic nucleotide was transformed, in a second incubation with excess nucleotidase, into tritiated adenosine or guanosine. The formed nucleoside was separated from nucleotides by anion exchange resin chromatography. The radioactivity of the nucleoside was measured by liquid scintillation. […]
(§3) A 3 g piece of bovine aortic media was chopped up with scissors, homogenised using an Ultra-Turrex then using a glass/glass Potter in 7 volumes/weight of buffer A containing a cocktail of protease inhibitors (20 mM Tris-HCl, 0.25 M saccharose, 2 mM magnesium acetate, 1 mM dithiothreitol, 5 mM EGTA, 2000 U/ml aprotinine, 10 mg/l leupeptine and 10 mg/l soy-bean trypsin inhibitor). […] The column was washed until no absorption at 280 nm could be detected, then elution was with a linear NaCl gradient (0-0.5 M) in buffer B. 3 ml fractions were collected and enzymatic activity was measured under various conditions so as to determine the peaks of enzymatic activity contained in the fractions for, in the order of elution, PDE1, PDE5, PDE3 and PDE4. […]

[3] = molecular target: T1, PDE2 (Homo sapiens, UniProt O00408); assay: PDE2 inhibition, radioenzyme assay, enzyme isolated from platelets; assay type: biochemical; settings: 1 μM substrate
T1 construct: from tissue; host or cells: human platelets, cytosol, DEAE-Sephacel then MonoQ HPLC
T1 sequence (O00408 whole entry): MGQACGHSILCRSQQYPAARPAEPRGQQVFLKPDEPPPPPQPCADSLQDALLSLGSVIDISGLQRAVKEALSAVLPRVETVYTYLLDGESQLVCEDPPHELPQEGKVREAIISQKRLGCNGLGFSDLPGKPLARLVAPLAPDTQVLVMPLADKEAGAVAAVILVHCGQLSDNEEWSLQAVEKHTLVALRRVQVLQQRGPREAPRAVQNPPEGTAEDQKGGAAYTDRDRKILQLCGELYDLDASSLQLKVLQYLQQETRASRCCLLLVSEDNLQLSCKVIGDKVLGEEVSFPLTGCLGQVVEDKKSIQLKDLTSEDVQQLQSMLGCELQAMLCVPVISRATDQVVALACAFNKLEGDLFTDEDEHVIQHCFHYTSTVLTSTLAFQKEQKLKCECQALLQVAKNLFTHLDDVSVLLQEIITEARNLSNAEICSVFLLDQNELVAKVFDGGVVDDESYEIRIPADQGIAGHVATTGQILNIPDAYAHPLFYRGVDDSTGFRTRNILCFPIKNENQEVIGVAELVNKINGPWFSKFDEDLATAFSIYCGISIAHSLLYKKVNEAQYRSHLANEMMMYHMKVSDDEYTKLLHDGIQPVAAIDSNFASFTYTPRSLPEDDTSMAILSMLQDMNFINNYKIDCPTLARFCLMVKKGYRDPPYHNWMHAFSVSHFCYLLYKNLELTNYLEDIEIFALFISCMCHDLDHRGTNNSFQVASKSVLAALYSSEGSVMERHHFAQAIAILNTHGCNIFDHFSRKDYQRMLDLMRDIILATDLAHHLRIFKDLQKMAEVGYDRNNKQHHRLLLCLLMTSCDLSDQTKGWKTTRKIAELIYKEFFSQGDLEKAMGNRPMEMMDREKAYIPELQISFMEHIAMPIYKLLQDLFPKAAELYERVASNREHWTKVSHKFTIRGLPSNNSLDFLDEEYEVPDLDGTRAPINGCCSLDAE
Method: (§4) Cyclic nucleotides phosphodiesterase activity was measured by a radioenzyme method using tritiated cyclic AMP or GMP (1 μM) as substrate (Lugnier C. et al., Biochem. Pharmacol. (1986) 35, 1743-1751; Keravis T et al., Meth. Mol. Biol. (2005) 307, 63-74.). Tritiated adenosine or guanosine monophosphate formed by hydrolysis of the labelled cyclic nucleotide was transformed, in a second incubation with excess nucleotidase, into tritiated adenosine or guanosine. The formed nucleoside was separated from nucleotides by anion exchange resin chromatography. The radioactivity of the nucleoside was measured by liquid scintillation. Enzyme incubations were carried out under conditions in which there was no more than 15% of substrate hydrolysis, and each point was repeated.
Washed human platelets from the French Blood Bank (Etablissement Francais du Sang) in Strasburg were left to stand, then the sedimented cells were homogenised in buffer A and centrifuged at 105.000 g for 1 hour. The supernatant was subject to chromatography following the procedure already described for the aortic media (C-2). Then the fractions rich in PDE2 (activity stimulated by 5 μM cGMP) were subject to HPLC chromatography using Pharmacia's MonoQ H/R 5×5. The fraction containing PDE2 was aliquoted and stored at −80° C. (Kameni Tcheudji J. F et al, J. Mol. Biol. (2001) 310, […].). […]

[4] = test system: TNF-α secretion by blood cells of MRL/lpr mice; assay: TNF-α secretion by blood cells from treated mice after ex vivo LPS stimulation; assay type: in vivo, mouse; settings: LPS 24 h ex vivo
Method: FIG. 3: Effect of compound NCS 613 and denbufylline on the production of TNF-α by blood cells from treated mice after LPS stimulation. TNF-α secretion by blood cells from mice having received saline solution (PBS), compound NCS 613 or denbufylline after ex vivo LPS stimulation for 24 hours was measured in the supernatants by ELISA. The error bars show the standard deviation of duplicates, and the percentage inhibition of TNF-α secretion as a function of the secretion measured in the PBS group is shown. The figures refer to experiments carried out on mice aged 11 (A) and 14 (B) weeks.
as §1
TNF-α secretion was measured after bacterial lipopolysaccharide (LPS) stimulation of mouse blood cells (blood pooled from the 7 mice per group). LPS cell stimulation for 24 hours generates TNF-α secretion which can then be measured in culture supernatants. Cells from the blood of the 3 groups of mice were separated on a Ficoll gradient, and then stimulated by LPS. Supernatants were collected after 24 hours of culture, and the presence of TNF-α in supernatants was measured by a double sandwich ELISA test (BD Biosciences). This experiment was carried out at different ages (11 and 14 weeks, that is 2 weeks after the 3rd administration and 1 week after the 4th administration respectively).

[5] = molecular target: PDE6; assay: PDE6 (so in the source) inhibition, radioenzyme assay, enzyme isolated from vascular tissue; assay type: biochemical, bovine; settings: PDEs isolated from vascular tissue; 1 μM substrate
Method: as §2, §3

[6] = test system: MRL/lpr mice; assay: Proteinuria in MRL/lpr lupus mice; assay type: in vivo, mouse
Method: FIG. 1: Effect of compound NCS 613 and denbufylline on proteinuria in MRL/lpr mice. Up to the age of 13 weeks, the mice received 4 administrations either of 30 μg of compound NCS 613 or of 100 μg of denbufylline.
as §1

[7] = test system: MRL/lpr mice; assay: Survival of MRL/lpr lupus mice; assay type: in vivo, mouse; settings: for effect on survival / life expectancy of MRL/lpr mice: 4 i.v. administrations (NCS 613 30 μg, denbufylline 100 μg), followed to 26 weeks
Method: FIG. 2: Effect of compound NCS 613 (A) and denbufylline (B) on survival of MRL/lpr lupus mice. Up to the age of 13 weeks, the mice received 4 administrations either of 30 μg of compound NCS 613 or of 100 μg of denbufylline. The results are expressed in percentage survival of mice. Control mice received only PBS (phosphate buffered saline, pH 7.4) without the active ingredient.
as §1

[8] = molecular target: PDE1; assay: PDE1 inhibition, radioenzyme assay, enzyme isolated from vascular tissue; assay type: biochemical, bovine; settings: PDEs isolated from vascular tissue; 1 μM substrate
Method: as §2, §3

[9] = molecular target: T2, PDE5 (Bos taurus, UniProt Q28156); assay: PDE5 inhibition, radioenzyme assay, enzyme isolated from vascular tissue; assay type: biochemical, bovine; settings: PDEs isolated from vascular tissue; 1 μM substrate
T2 construct: Effects of compound NCS 613 on PDEs isolated; from tissue; host or cells: bovine aortic media, cytosol, DEAE-Sephacel fraction
Method: as §2, §3

[10] = test system: TNF-α secretion by PBMCs of patients with auto-immune diseases; assay: TNF-α secretion after LPS stimulation of mononuclear blood cells of autoimmune patients; assay type: cell-based, human; settings: for inhibition at 10 µM: Homo sapiens, PBMC
Method: FIG. 5. Inhibition of TNF-α secretion by compound NCS 613 after LPS stimulation of the PBMCs of patients with auto-immune diseases. Blood cells from patients with lupus (SLE), rheumatoid arthritis (RA) and Sjögren's syndrome (SS) were incubated for 45 minutes in the presence or absence of NCS 613 (10 μM), then stimulated with LPS. The supernatants were recovered after 24 hours of culture and the level of TNF-α in supernatants was measured by ELISA. The results are given in TNF-α concentration after incubation in the presence or absence of NCS 613 (A) or as inhibition of TNF-α secretion after incubation with NCS 613 (B). Error bars show the standard deviation of duplicates.
(§5) The blood of 5 patients with lupus, rheumatoid arthritis or Sjögren's syndrome was collected directly in heparinated tubes. Mononuclear blood cells were separated by centrifugation (30 min at 600 g) on a Ficoll gradient. Cells were then grown at a concentration of 2×10^5 cells per well in the presence or absence of compound NCS 613 (10 μM) for 45 minutes then stimulated with LPS. Supernatants were recovered after 24 hours of culture and the level of TNF-α in supernatants was measured by double sandwich ELISA (BD Biosciences).

[11] = molecular target: recombinant PDE4A (Homo sapiens, UniProt P27815); assay: Inhibition of recombinant PDE4 subtype PDE4A; assay type: biochemical
Sequence of recombinant PDE4A (P27815 whole entry, species assumed): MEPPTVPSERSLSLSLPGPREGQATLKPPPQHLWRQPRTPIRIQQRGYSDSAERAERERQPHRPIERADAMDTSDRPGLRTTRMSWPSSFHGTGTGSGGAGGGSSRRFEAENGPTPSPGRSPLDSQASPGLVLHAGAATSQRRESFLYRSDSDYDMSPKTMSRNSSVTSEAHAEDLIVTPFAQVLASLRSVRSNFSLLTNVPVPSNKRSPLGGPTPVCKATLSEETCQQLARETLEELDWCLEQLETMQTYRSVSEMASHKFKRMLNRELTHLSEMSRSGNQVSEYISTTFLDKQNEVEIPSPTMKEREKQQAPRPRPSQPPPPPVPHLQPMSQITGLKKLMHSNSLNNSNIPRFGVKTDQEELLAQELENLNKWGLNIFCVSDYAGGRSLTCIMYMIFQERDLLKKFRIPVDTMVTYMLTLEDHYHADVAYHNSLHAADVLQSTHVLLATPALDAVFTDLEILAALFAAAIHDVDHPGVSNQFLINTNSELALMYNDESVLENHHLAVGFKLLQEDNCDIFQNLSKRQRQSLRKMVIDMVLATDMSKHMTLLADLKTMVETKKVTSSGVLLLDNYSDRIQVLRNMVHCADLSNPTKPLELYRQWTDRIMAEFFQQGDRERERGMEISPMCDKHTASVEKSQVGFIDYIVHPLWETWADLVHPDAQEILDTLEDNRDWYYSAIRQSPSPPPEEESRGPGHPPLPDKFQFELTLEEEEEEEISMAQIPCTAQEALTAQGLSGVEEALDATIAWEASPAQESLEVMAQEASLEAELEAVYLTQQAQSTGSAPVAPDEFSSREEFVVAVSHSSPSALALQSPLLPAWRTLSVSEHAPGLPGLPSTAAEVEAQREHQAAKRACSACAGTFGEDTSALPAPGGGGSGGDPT
Method: as §4
(§6) The concentration of the substance causing 50% inhibition of enzymatic activity (IC50) at 1 μM substrate was calculated by non-linear regression (Prism, GraphPad) with the help of the results obtained for compound concentrations that varied as the molecule concentration was increased from 1 nM to 300 μM. Because of solubility problems, the maximum concentration used in this study was limited to 300 μM.

[12] = molecular target: recombinant PDE4C (Homo sapiens, UniProt Q08493); assay: Inhibition of recombinant PDE4 subtype PDE4C; assay type: biochemical
Sequence of recombinant PDE4C (Q08493 whole entry, species assumed): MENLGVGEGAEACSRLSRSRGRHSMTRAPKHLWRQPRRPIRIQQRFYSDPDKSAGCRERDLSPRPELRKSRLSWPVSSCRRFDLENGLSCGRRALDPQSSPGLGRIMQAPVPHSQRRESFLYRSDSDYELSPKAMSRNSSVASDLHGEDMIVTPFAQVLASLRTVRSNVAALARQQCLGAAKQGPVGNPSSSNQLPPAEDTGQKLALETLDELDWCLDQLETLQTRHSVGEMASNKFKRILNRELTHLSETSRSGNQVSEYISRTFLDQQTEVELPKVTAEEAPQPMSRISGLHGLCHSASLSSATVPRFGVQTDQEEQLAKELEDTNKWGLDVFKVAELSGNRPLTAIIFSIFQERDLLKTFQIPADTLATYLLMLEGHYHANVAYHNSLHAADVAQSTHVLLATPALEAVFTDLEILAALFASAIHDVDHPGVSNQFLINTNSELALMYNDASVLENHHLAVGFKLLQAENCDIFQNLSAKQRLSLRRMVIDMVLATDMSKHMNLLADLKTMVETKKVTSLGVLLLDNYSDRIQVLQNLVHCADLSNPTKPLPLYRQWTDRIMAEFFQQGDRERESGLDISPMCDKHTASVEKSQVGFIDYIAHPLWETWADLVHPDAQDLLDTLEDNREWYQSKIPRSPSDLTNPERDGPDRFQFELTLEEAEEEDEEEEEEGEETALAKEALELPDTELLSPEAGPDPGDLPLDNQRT
Method: as §4, §6

[13] = test system: TNF-α secretion by PBMCs of a lupus patient; assay: Basal TNF-α secretion by mononuclear blood cells of a lupus patient; assay type: cell-based; settings: Homo sapiens, PBMC, no LPS stimulation, one lupus patient, read-out: inhibition of spontaneous (basal) TNF-α secretion
Method: FIG. 6: Inhibition of TNF-α secretion by PBMCs of a lupus patient after incubation with NCS 613. The blood cells of a lupus patient (LED2) were incubated in the presence or absence of NCS 613 (10 μM). Supernatants were recovered after 24 hours of culture and the level of TNF-α in the supernatants was measured by ELISA. The results are given as TNF-α concentration after incubation in the presence or absence of NCS 613 and the percentage inhibition of TNF-α secretion after incubation with NCS 613 is shown. Error bars show the standard deviation of duplicates.
as §5
So the ability of compound NCS 613 to inhibit basal TNF-α secretion was studied in blood cells of this patient.

[14] = molecular target: recombinant PDE4D (Homo sapiens, UniProt Q08499); assay: Inhibition of recombinant PDE4 subtype PDE4D; assay type: biochemical
Sequence of recombinant PDE4D (Q08499 whole entry, species assumed): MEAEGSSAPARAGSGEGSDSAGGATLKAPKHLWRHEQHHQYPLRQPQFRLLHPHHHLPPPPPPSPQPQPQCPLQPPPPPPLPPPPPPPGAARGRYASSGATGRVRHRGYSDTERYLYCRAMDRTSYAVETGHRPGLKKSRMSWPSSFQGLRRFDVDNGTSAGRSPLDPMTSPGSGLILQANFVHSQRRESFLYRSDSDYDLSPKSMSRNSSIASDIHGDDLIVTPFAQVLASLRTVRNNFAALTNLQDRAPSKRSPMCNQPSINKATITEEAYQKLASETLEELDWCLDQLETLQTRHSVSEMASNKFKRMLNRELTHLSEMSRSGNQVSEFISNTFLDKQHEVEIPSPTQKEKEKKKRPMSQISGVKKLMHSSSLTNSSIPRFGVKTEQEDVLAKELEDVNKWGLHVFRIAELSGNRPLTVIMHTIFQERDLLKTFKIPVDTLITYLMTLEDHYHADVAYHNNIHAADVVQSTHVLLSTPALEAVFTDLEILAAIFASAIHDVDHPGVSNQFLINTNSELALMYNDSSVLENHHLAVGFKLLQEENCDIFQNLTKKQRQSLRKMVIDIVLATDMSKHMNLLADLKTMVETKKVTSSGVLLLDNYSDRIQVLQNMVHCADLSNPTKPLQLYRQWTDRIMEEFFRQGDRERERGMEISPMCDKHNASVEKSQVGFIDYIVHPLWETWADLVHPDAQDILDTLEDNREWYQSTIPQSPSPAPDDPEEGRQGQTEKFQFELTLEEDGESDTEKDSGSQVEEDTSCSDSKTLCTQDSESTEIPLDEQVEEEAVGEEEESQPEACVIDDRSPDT
Method: as §4, §6

[15] = molecular target: recombinant PDE4B (Homo sapiens, UniProt Q07343); assay: Inhibition of recombinant PDE4 subtype PDE4B; assay type: biochemical
Sequence of recombinant PDE4B (Q07343 whole entry, species assumed): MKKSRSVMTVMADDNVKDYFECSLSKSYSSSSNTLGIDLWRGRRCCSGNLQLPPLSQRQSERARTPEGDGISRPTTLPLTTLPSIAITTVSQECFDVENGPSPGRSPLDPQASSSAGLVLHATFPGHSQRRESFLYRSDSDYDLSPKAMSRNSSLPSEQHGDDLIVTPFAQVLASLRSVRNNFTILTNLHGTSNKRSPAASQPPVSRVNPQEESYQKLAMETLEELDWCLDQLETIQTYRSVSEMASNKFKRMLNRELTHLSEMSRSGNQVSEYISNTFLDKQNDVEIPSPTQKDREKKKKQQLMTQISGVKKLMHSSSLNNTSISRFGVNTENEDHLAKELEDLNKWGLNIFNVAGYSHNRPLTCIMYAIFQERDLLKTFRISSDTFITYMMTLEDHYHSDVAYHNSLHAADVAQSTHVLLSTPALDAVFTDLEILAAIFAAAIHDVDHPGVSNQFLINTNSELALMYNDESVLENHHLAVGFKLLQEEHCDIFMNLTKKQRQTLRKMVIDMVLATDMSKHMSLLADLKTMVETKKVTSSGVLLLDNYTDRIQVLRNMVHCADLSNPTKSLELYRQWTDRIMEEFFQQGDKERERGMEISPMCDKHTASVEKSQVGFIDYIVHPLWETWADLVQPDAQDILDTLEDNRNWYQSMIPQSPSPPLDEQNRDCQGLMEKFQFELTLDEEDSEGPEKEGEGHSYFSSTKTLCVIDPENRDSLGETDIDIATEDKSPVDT
Method: as §4, §6

[16] = mice aged 11 weeks (2 weeks after 3rd administration)
[17] = mice aged 14 weeks (1 week after 4th administration)
[18] = at 20 weeks of age, 4 i.v. administrations at 5, 7, 9, 13 weeks (NCS 613 30 μg, denbufylline 100 μg)

Row | Structure (SMILES) | age at which first anti-DNA Ab positive mice appeared [1] | IC50 [2] | IC50 [3] | inhibition percentage of TNF-α secretion vs PBS control group [4, 16] | inhibition percentage of TNF-α secretion vs PBS control group [4, 17] | percentage of mice with proteinuria detected [6, 18] | effect on survival / life expectancy of MRL/lpr mice [7] | IC50 [8] | IC50 [9] | also measured
1 | CCCCn1c(=O)c2c(ncn2CC(C)=O)n(CCCC)c1=O [Denbufylline, denbufylline, reference compound] | 14 weeks | 0.76 µM | 208 µM | Equivalent results | even greater than that obtained with compound NCS 613 | equivalent to that of control mice | no acknowledged effect on mouse survival | 33 µM | 5.4 µM | IC50 PDE6 [5]: n.s; age at which mortality begins ([7]; 4 i.v. administrations of 100 μg): 15 weeks
2 | CNc1nc(C(F)(F)F)nc2c1ncn2Cc1ccccc1F [NCS 613, 9-(2-fluorobenzyl)-N(6)-methyl-2-trifluoromethyladenine] | 20 weeks | 0.042 µM | 24 µM | 44% | 54% | 50% | markedly prolongs the life expectancy | 39 µM | 4.7 µM | percentage of mice positive for anti-DNA Abs in serum ([1]; at 20 weeks of age): 20%; percentage of mice positive for anti-DNA Abs in serum ([1]; at 26 weeks of age, 13 weeks after end of treatment): 50%; inhibition percentage of TNF-α secretion by mononuclear blood cells of lupus (SLE) patients, individual patients ([10]; 10 μM, LPS stimulation, 3 lupus patients): 69% and 91% and 98%; inhibition at 10 µM ([10]; LPS stimulation, mean of 3 patients, read-out: mean inhibition percentage of TNF-α secretion by mononuclear blood cells of lupus (SLE) patients): 86%; inhibition at 10 µM ([10]; patients with SLE, RA, Sjögren's syndrome, read-out: inhibition of TNF-α production by LPS-stimulated blood cells of autoimmune patients): 70 to 98%; IC50 [11]: 0.043 µM; IC50 [5]: > 300 µM; percentage of mice with proteinuria detected ([6]; at 14 weeks of age, 4 i.v. administrations at 5, 7, 9, 13 weeks (NCS 613 30 μg)): 10%; mortality ([7]; at 21 weeks of age, 4 i.v. administrations of 30 μg): 30%; IC50 [12]: 0.0014 µM; inhibition at 10 µM [13]: 67%; IC50 [14]: 0.014 µM; IC50 [15]: 0.05 µM
